One compound from patent publication US20030125572A1, “Diester compounds of maleic acid (or fumaric acid)” (SENJU PHARMACEUTICAL CO., LTD., priority 1999, published 2003) can be followed below.

The subject of assay [1] is mouse auricule inflammation. Put plainly: Inflammation model of mouse auricule (PMA-induced edema). It is filed as in vivo. The following applies: for Inhibition rate (%): auricule edematization, against control (methanol), 0.5% solution topically, 24 hours. The procedure:
The compound of Example 1 is dissolved in ethanol to the concentration of 0.5%.
6-Weeks aged male mice of ddy strain as procured from SLC CO. are subjected to the test.
In order to cause inflammation, a solution (100 μg/mL) of phorbol 12-myristate 13-acetate (PMA) in acetone is applied in 10-μl portions (20 μl in total per mouse) onto the inside and outside of right-hand auricule of each mouse in such a manner that the solution may extend over the whole auricule. 24 Hours after causing inflammation, the thickness of right-hand auricule of each mouse is measured with use of a dial thickness gauge, and the edematization rate is calculated based on the thickness before causing inflammation.
The test substance is applied in 10-μl portions (20 μl in total per mouse) onto the inside and outside of right-hand auricule of each mouse.

Assay [2] is described as follows: DPPH radical scavenging capacity. The following applies: for Radical scavenging capacity: DPPH, 20 min, absorbance at 517 nm. The procedure:
The Compound is tested for the radical scavenging capacity against the stabilized radical of 1,1-diphenyl-2-picrylhydro radicals (DPPH).
The compound of Example 1 is dissolved in ethanol to the concentrations ranging from 10^−2 to 10^−5 M.
The test is carried out in accordance with the procedure of Blois, M. S., Nature: 181, 1199 […].
Added to 300 μl of a sample solution is 2.7 ml of a 0.011 mM ethanol solution of DPPH or a stabilized radical, and the solution is stirred and left on standing for 20 min., followed by measurement of absorbance at a wavelength of 517 nm. The radical scavenging rate of the sample solution is determined by the following equation:
Radical scavenging rate (%)=(absorbance of control−absorbance of the sample solution[…])×100
For orientation: The DPPH test is a chemical assay of radical scavenging.

Molecules are shown by their SMILES. Structures can show the parent of a compound that is named as a salt.

With `Cc1c(C)c2c(c(C)c1OC(=O)/C=C\C(=O)OC1=C(O)[C@@H]([C@@H](O)CO)OC1=O)CCC(C)(CCCC(C)CCCC(C)CCCC(C)C)O2` (stereo partly drawn) [Example 1, α-Tocopheryl L-Ascorbic Acid-2-O-Maleate (or Fumarate)], the “Inhibition rate (%)” value is 83.8% in assay [1] (listed as Compound of Example 1) and 83.3% in assay [1] (listed as the Compound). In addition, the “Edematization rate (%)” value in assay [1] (male ddy mice, PMA on right auricule, 24 hours after causing inflammation, 0.5% solution applied topically, 20 μl per mouse, mean ± S.E. (n = 8)) amounted to 26.9 ± 6.2 %. The same compound gave an IC50 in assay [2] (DPPH radical) of approximately 560 µM. In addition, the Radical scavenging capacity is given as 5.2% in assay [2] (final concn. 10 μM), 10.8% in assay [2] (final concn. 100 μM), 29.5% in assay [2] (final concn. 300 μM) and 61.4% in assay [2] (final concn. 1000 μM).

By IC50 is commonly meant the concentration at which inhibition is half-maximal.
